Experimental data taken from the supplement of paper PMC10307832.

Tests used:
Experiment in all cases: relative viability (nuclei count vs DMSO), 5 days (fraction); higher = more cells survive
Bemcentinib + Trametinib = compound: Nc1nc(Nc2ccc3c(c2)CC[C@@H](N2CCCC2)CC3)nn1-c1cc2c(nn1)-c1ccccc1CCC2 [Bemcentinib] + CC(=O)Nc1cccc(-n2c(=O)n(C3CC3)c(=O)c3c(Nc4ccc(I)cc4F)n(C)c(=O)c(C)c32)c1 [Trametinib] (partner 0.02 µM)
In short: (§1)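 Lung cancer cell lines in 1536-well plates got either a single drug or a fixed anchor-drug dose together with five library-drug doses (not always all listed) in √10 steps, by pin tool, on the day after seeding. Nuclei were counted after 5 days, and relative viability is the treated-to-vehicle ratio of nuclei counts. Values are medians of duplicate plates.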

[1] = compound: CC1=CC=C(C=C1)C(=O)CN2C3=C(CCCC3)SC2=N [Pifithrin_alpha] + O=C(c1cc(Cc2n[nH]c(=O)c3ccccc23)ccc1F)N1CCN(C(=O)C2CC2)CC1 [Olaparib] (partner 8 µM)
In short: as §1

Axitinib + Pictilisib = compound: CNC(=O)c1ccccc1Sc1ccc2c(/C=C/c3ccccn3)n[nH]c2c1 [Axitinib] + CS(=O)(=O)N1CCN(Cc2cc3nc(-c4cccc5[nH]ncc45)nc(N4CCOCC4)c3s2)CC1 [Pictilisib] (partner 1 µM)
In short: as §1

Axitinib + Pemetrexed = compound: CNC(=O)c1ccccc1Sc1ccc2c(/C=C/c3ccccn3)n[nH]c2c1 [Axitinib] + Nc1nc2[nH]cc(CCc3ccc(C(=O)N[C@@H](CCC(=O)O)C(=O)O)cc3)c2c(=O)[nH]1 [Pemetrexed] (partner 0.2 µM)
In short: as §1

Cell Line | relative viability (Bemcentinib + Trametinib; first compound 0.04 µM) | relative viability (Bemcentinib + Trametinib; first compound 0.1265 µM) | relative viability (Bemcentinib + Trametinib; first compound 0.4 µM) | relative viability (Bemcentinib + Trametinib; first compound 1.265 µM) | relative viability (Bemcentinib + Trametinib; first compound 4 µM) | relative viability ([1]; first compound 1 µM) | relative viability ([1]; first compound 3.162 µM) | relative viability ([1]; first compound 10 µM) | relative viability ([1]; first compound 31.62 µM) | relative viability ([1]; first compound 100 µM) | relative viability (Axitinib + Pictilisib; first compound 0.005 µM) | relative viability (Axitinib + Pictilisib; first compound 0.01581 µM) | relative viability (Axitinib + Pictilisib; first compound 0.05 µM) | relative viability (Axitinib + Pictilisib; first compound 0.1581 µM) | relative viability (Axitinib + Pictilisib; first compound 0.5 µM) | relative viability (Axitinib + Pemetrexed; first compound 0.005 µM) | relative viability (Axitinib + Pemetrexed; first compound 0.01581 µM) | relative viability (Axitinib + Pemetrexed; first compound 0.05 µM) | relative viability (Axitinib + Pemetrexed; first compound 0.1581 µM) | relative viability (Axitinib + Pemetrexed; first compound 0.5 µM)
NCI-H2228 | 0.202 | 0.652 | 0.533 | 0.651 | 0.565 | 0.681 | 0.634 | 0.605 | 0.647 | 0.549 | 0.472 | 0.391 | 0.416 | 0.486 | 0.622 | 0.335 | 0.306 | 0.307 | 0.374 | 0.341
NCI-H1355 | 0.407 | 0.414 | 0.462 | 0.405 | 0.509 | 0.653 | 0.52 | 0.413 | 0.442 | 0.345 | 0.41 | 0.514 | 0.606 | 0.432 | 0.308 | 1.01 | 1.03 | 1.09 | 1.03 | 1.01
LXF-289 | 0.705 | 0.681 | 0.648 | 0.7 | 0.773 | 1.16 | 0.994 | 1.1 | 0.717 | 1.16 | 0.823 | 0.732 | 0.833 | 0.765 | 0.742 | 1.01 | 0.91 | 0.968 | 0.888 | 0.982
NCI-H3122 | 0.25 | 0.248 | 0.214 | 0.252 | 0.244 | 0.635 | 0.48 | 0.511 | 0.291 | 0.389 | 0.579 | 0.592 | 0.627 | 0.594 | 0.598 | 0.218 | 0.196 | 0.219 | 0.193 | 0.212
NCI-H2023 | 0.564 | 0.675 | 0.572 | 0.762 | 0.657 | 0.514 | 0.455 | 0.318 | 0.301 | 0.244 | 0.232 | 0.195 | 0.267 | 0.222 | 0.272 | 0.237 | 0.232 | 0.177 | 0.252 | 0.291
NCI-H838 | 0.501 | 0.535 | 0.533 | 0.432 | 0.534 | 0.723 | 0.505 | 0.469 | 0.363 | 0.534 | 0.461 | 0.37 | 0.551 | 0.594 | 0.607 | 0.243 | 0.25 | 0.247 | 0.237 | 0.25
COR-L 105 | 0.453 | 0.48 | 0.458 | 0.39 | 0.377 | 0.489 | 0.426 | 0.477 | 0.425 | 0.447 | 0.42 | 0.411 | 0.379 | 0.382 | 0.385 | 1.14 | 1.09 | 1.05 | 1.25 | 1.26
RERF-LC-KJ | 0.953 | 0.968 | 0.863 | 0.818 | 0.96 | 0.779 | 0.4 | 0.215 | 0.178 | 0.175 | 0.583 | 0.654 | 0.544 | 0.603 | 0.51 | 0.435 | 0.443 | 0.485 | 0.491 | 0.502
